# In patent US20010034319A1, “Photothermal vascular targeting with bioreductive agents” (priority 1999, published 2001):
# What was measured:
# [1] = tested on: human squamous cancer cells; assay: PDL and POR on human squamous cancer cell tumors in hamster cheek pouch (Example VIII); format: in vivo, hamsters; conditions: combined PDL (588 nm) and POR versus PDL only, FIG. 5
# Text: In this example, tumors were produced in the cheek pouches of hamsters by transplantation of human squamous cancer cells according to methods well known in the art. Hamsters were divided into four treatment groups: (1) control, (2) bioreductive agent porfiromycin only (POR), (3) 588 nm pulsed dye laser only (PDL), and (4) combined PDL and POR.
# [2] = tested on: KB cells (human pharyngeal SCC); assay: Effect of POR alone on KB tumor volume in nude mice (Example IV); format: in vivo; conditions: POR alone 2.50, 5.0, 7.5, 10.0 mg/kg ip vs saline control; days 0-13; FIG. 1
# Protocol: KB cells (human pharyngeal SCC, American Type Culture Collection, Rockville, Md.) were maintained in culture medium consisting of 90% Minimal Essential medium (Gibco BRL, Grand Island, N.Y.) and 10% fetal bovine serum (Hyclone, Logan, Utah) with the addition of 10 nM nonessential amino acid (Gibco BRL) and antibiotics (penicillin, streptomycin: Gibco BRL). The cells were grown as monolayers in Falcon T150 flasks (Becton Dickinson, Franklin Lakes, N.J.) in a 37° C. humidified incubator with 5% CO2.
# The effect of treatment on tumor volumes was determined using analysis of variance. […]
# Fifteen mice, each with 4 tumor inoculations, were divided into 4 treatment groups and 1 control group. […] The 3 orthogonal diameters of the tumors were measured at days 0, 2, 4, 6, 8, 10, and 13 following POR injection. […]
# normal skin tissue = assay: POR with PDL treatment of normal skin tissue, histologic evaluation (Example VII); format: in vivo, Syrian golden hamsters; conditions: PDL 15 min. after ip POR; biopsies 10 min. or 2 days after irradiation; hamster flank
# Protocol: The effect on normal skin tissue of PDL irradiation with or without POR was determined using 6 adult Syrian golden hamsters. The hamsters were divided into two groups, and hair of each animal was shaved from an area of the flank. One group was irradiated with the PDL 15 min. after ip injection of POR, and the other group was irradiated without POR administration. Biopsies of treated sites were taken 10 min. or 2 days after irradiation. Specimens were fixed with formalin, embedded in paraffin, sectioned, and stained (H&E) for histologic evaluation.
# [3] = Body weight / systemic toxicity monitoring of POR in tumor-bearing mice (Example IV); conditions: POR 2.50-10.0 mg/kg ip; mice weighed days 0-13
# Protocol: Fifteen mice, each with 4 tumor inoculations, were divided into 4 treatment groups and 1 control group. Five days after tumor inoculation, the 4 treatment groups received 2.50, 5.0, 7.5, and 10.0 mg/kg intraperitoneal (ip) injections of POR (Vion Pharmaceuticals, Inc., New Haven, Conn.) dissolved in sterile water. […] All mice were anesthetized during ip injections and tumor measurements. […] The mice were weighed at the time of each tumor measurement to monitor for any systemic toxicity of POR.
# [4] = tested on: KB cells (human pharyngeal SCC); assay: POR with PDL limited to tumor area, KB tumors in nude mice (Example V); format: in vivo; conditions: for effect of treatment on mean tumor volume (analysis of variance): repeated two days later, FIG. 2
# Protocol: (§1) KB cells (human pharyngeal SCC, American Type Culture Collection, Rockville, Md.) were maintained in culture medium consisting of 90% Minimal Essential medium (Gibco BRL, Grand Island, N.Y.) and 10% fetal bovine serum (Hyclone, Logan, Utah) with the addition of […] nonessential amino acid (Gibco BRL) and antibiotics (penicillin, streptomycin: Gibco BRL). The cells were grown as monolayers in Falcon T150 flasks (Becton Dickinson, Franklin Lakes, N.J.) in a 37° C. humidified incubator with 5% CO2.
# (§2) Prior to inoculation, the cells were rinsed with PBS lacking calcium and magnesium (Gibco BRL), trypsinized (Gibco BRL), counted, centrifuged at 1000 rpm for 6 min., and resuspended in normal saline for a final concentration of 1,000,000 cells/ml.
# (§3) Six- to seven-week-old nude mice (Charles River Labs, Wilmington, Mass.) were sterilely housed and fed ad libitum. Intradermal inoculation of 0.05 ml of cell suspension (50,000 cells) was performed under general anesthesia (ether) using a 30 gauge hypodermic needle. After 5 days, the majority of the tumors were visually apparent and palpable.
# (§4) The effect of treatment on tumor volumes was determined using analysis of variance. Multiple comparisons were performed using the Student-Newman-Keuls (SNK) test. P values less than 0.05 are considered significant.
# Sixteen mice, each with 4 tumor inoculations, were divided into 3 treatment groups and 1 control group. On day 6 following tumor inoculation, the treatment groups received (1) ip POR only (10 mg/kg), (2) ip saline and PDL limited to tumor area (585 nm, 10 J/cm^2, 300-500 μs; Model SPTL-1a, Candela Corporation, Wayland, Mass.), or (3) ip POR (10 mg/kg) and PDL limited to the tumor area (585 nm, 10 J/cm^2, 300-500 μs). The control group received ip saline injections only. PDL irradiation was performed 15 min. after administration of POR or vehicle, using a laser handpiece that produced a 5 mm diameter irradiated spot with a uniform energy distribution on the tumor surface. An aluminum plate with holes of various diameters was used to shield areas beyond the tumor border. […]
# [5] = tested on: KB cells (human pharyngeal SCC); assay: POR with PDL extending beyond tumor area, KB tumors in nude mice (Example VI); format: in vivo
# Protocol: as §1, §2, §3, §4
# Twelve mice with 6 tumor inoculations were divided into 3 treatment groups and 1 control group. On day 5 following inoculation, the 4 groups were treated as in Example V except that the field of irradiation was extended to include a 2 to 3 mm periphery beyond the tumor edge. In addition, on the second treatment day, the fluence was raised from 10 to 15 J/cm^2. Tumor volume measurements were performed on days 0, 2, 4, 6, 8, 10, and 12 following the first treatment. Mice were weighed on day 0 and 6 following the first treatment. There were two anesthesia related deaths: one mouse from the control group and one mouse from the group receiving both PDL and POR died before day 10 and were therefore excluded from analysis.
# hypoxic cells = conditions: compared with mitomycin C; cited from earlier work
structure (smiles),measurement,setting,value
"CO[C@@]12[C@H](COC(N)=O)C3=C(C(=O)C(C)=C(N)C3=O)N1C[C@H]1[C@@H]2N1C (stereo partly drawn) [POR, porfiromycin]",tumor regression and remission,[1],tumor regression and remission following laser vascular targeting is enhanced
same,effect of treatment on mean tumor volume (analysis of variance),[2],no significant effect of treatment at any point in time
same,damage to normal skin after PDL irradiation (histologic and clinical),normal skin tissue,no microscopic or clinical evidence of epithelial necrosis or other damage to tissue structures beyond the blood vessels
same,effect of treatment on body weight / acute toxicity,[3],"no significant effect of treatment on body weight, or any other indication of acute toxicity"
same,effect of treatment on mean tumor volume (analysis of variance),"[4]; ip POR 10 mg/kg and PDL limited to tumor area (585 nm, 10 J/cm^2)",no significant effect of treatment at any point in time
same,skin sloughing / epithelial necrosis in laser treatment groups,"[4]; ip POR 10 mg/kg and PDL limited to tumor area, gross and histological",no gross evidence of skin sloughing or any histological evidence of epithelial necrosis
same,effect of treatment on mean tumor volume (analysis of variance),"[4]; ip POR only 10 mg/kg, days 0-13",no significant effect of treatment at any point in time
same,tumor volume versus controls (SNK test),"[5]; POR 10 mg/kg ip with PDL including 2 to 3 mm margin (10 then 15 J/cm^2), all tumors, FIG. 3",differed from the controls from day 6 onward
same,tumor volume versus controls (SNK test),"[5]; POR alone 10 mg/kg ip, all tumors, FIG. 3",differed from the controls from day 6 onward
same,"tumor volume, PDL with POR versus PDL without POR","[5]; all tumors, PDL including tumor margin, FIG. 3",no significance between the effects of PDL irradiation with and without POR at any time
same,"tumor volume, PDL with POR versus PDL without POR (SNK test)","[5]; only the largest 33% of tumors on day 0, PDL including tumor margin, FIG. 4",significant difference between PDL with and without POR at all days after day 6
same,preferential toxicity for hypoxic cells,hypoxic cells,greater for POR than mitomycin C
